Laboratory results as given in US20090306093A1, “METHOD FOR TREATING PATIENT HAVING BENIGN PROSTATE HYPERPLASIA” (KAOHSIUNG MEDICAL UNIVERSITY, priority 2008, published 2009).

What was measured:
a1D-adrenoceptor = target: T1, a1D-adrenoceptor (Rattus norvegicus, UniProt P23944); test: [3H]-prazosin competition binding, rat aorta membranes; conditions: read-out: Receptor Affinity (pKi) a1D (converted)
T1 construct: The submaxillary glands, spleen, and aorta of rats were separately homogenized; from tissue; host or cells: Wistar rat aorta membranes
T1 sequence (P23944 1-561): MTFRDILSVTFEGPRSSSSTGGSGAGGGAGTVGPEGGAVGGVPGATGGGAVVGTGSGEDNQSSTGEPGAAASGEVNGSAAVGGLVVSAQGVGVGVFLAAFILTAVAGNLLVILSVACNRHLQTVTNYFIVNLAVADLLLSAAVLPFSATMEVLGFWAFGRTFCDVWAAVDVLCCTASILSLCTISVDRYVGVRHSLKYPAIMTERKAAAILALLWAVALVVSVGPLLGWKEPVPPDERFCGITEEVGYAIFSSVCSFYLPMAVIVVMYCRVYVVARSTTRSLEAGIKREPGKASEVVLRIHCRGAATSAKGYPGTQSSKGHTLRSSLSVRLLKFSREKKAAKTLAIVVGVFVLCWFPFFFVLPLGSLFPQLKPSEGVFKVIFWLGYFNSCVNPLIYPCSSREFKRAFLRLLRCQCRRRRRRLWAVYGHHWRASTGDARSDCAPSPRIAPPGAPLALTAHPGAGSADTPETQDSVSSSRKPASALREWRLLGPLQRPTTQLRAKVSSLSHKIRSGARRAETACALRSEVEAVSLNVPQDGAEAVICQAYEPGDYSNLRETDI
Protocol: Wistar rats were obtained from National Laboratory Animal Breeding and Research Center (Taipei, Taiwan) and housed under a constant temperature and controlled illumination. The submaxillary glands, spleen, and aorta of rats were separately homogenized for 30 seconds with a Kinematica polytron in 20 volumes of ice-cold TE buffer (10 mM Tris HCl, 1 mM EDTA, 0.1 mM ascorbic acid, pH 7.4). The homogenate was filtered under pressure through muslin and the filtrate was centrifuged at 1,000 g for 10 minutes. The supernatant was centrifuged again at 10,000 g for 12 minutes at 4° C. The second supernatant was centrifuged at 30,000 g for 15 minutes at 4° C., and the final pellet was resuspended in the assay buffer (75 mM Tris HCl, 25 mM MgCl2, pH 7.4). Protein content was determined by Bradford's method.
[^3H]-prazosin, KMUP-1 and membranes (200-300 μg) were incubated for 60 minutes at 25° C. with or without the addition of nonspecific binding agents, in a 75 mM Tris HCl buffer with 25 mM MgCl2, making a final volume of 500 μL. In this experiment, non-specific binding was defined by use of 10 μM phentolamine. […] Membrane-bound radioligand trapped in the filters was counted in a Beckman LS6500 scintillation system (Fullerton, Calif.) with an efficiency of 45%. In each experiment, nonspecifically bound radioligand agents were measured by incubating membrane protein. […]

[1] = system: PZ-HPV-7 human prostatic epithelial cells; test: Cell cycle distribution by flow cytometry; assay type: cell-based; conditions: 48 hours
Protocol: PZ-HPV-7 cells were incubated for 2 days with or without KMUP-1 (0.1-10 μM), after trypsinized for 10 minutes with 0.5% trypsin supplemented with 5.3 mM EDTA in HBBS. The cell suspension was then centrifuged at 200 g for 5 minutes at 4° C., resuspended in 1 mL ice-cold HBSS and fixed by the drop-wise addition of 2 mL of ice-cold methanol followed by continuously shaking. The processed cells were kept on ice for 30 minutes and then cells were collected by centrifugation at 90 g for 5 min and stained with propidium iodide (50 μg/mL, Sigma). RNase A (Promega, Madison, Wis.) was then added to a final concentration of 100 U/mL. Samples were stored in the dark for at least 30 minutes before an analysis on a Coulter Epics XL-MCL flow cytometer. […]

p21 = test: Western blot of p21 protein in PZ-HPV-7 cells; assay type: cell-based, human; conditions: 1, 10 μM, until 24 hours
Protocol: In order to examine the expression of Rho kinase in prostate, the prostate strips were pre-incubated with phenylephrine (10 μM) for 30 minutes. After a pre-treatment of phenylephrine, KMUP-1 (10-100 μM) and Y-27632 (10 μM) were further incubated for 30 minutes. After the incubation time, the prostate were extracted with protein extraction reagent (Pierce Biotechnology, Inc., Rockford, Ill., USA.). The PZ-HPV-7 cells were incubated with and without KMUP-1 (0.1-10 μM) at 30 minutes, 8 and 24 hours. They were then washed rapidly with ice-cold PBS, incubated with protein extraction reagent, and scraped from the plates. The prostate tissues and cells were sonicated three times for 10 second each time and centrifuged at 13,000 rpm at 4° C. for 30 minutes. The protein concentrations of supernatants were determined, using bovine serum albumin as the standard. Tissue and cell extract protein were then boiled at a ratio of 4:1 with sample buffer (100 mM Tris, pH 6.8, 20% glycerol, 4% SDS, and 0.2% bromphenol blue). 40-60 μg protein was used in this experiment. Electrophoresis was performed using 10 or 12% SDS-polyacrylamide gel electrophoresis and then transferred to nitrocellulose membranes (Millipore Corporation, Billerica, Mass.). […] The intensity of the bands was measured by densitometry.

In the case of `Cn1c(=O)c2c(ncn2CCN2CCN(c3ccccc3Cl)CC2)n(C)c1=O` [KMUP-1, 7-[2-[4-(2-Chlorobenzene)piperazinyl]ethyl]-1,3-dimethyl xanthine], the Ki (a1D-adrenoceptor) is reported as 20.4 nM, the “increase of G0/G1 phase compared with vehicle control” value (“increase of G0/G1 phase” for short) ([1]; 0.1 μM) is reported as 7±1.54% and the “increase of G0/G1 phase” value ([1]; 1 μM) is reported as 10±2.07%. For the same molecule, the “increase of G0/G1 phase” value ([1]; 10 μM) was 12.00±0.88% and the “production of p21 protein levels” value (p21) was “potently induces”.
